These results are taken from PMC5111045, “Modulation of NMDA channel gating by Ca^2+ and Cd^2+ binding to the external pore mouth” (Scientific Reports, 2016).

The target in experiment [1] is T1, NMDA receptor channel (GluN1a variant/GluN2B), wild-type (Rattus norvegicus, UniProt P35439+Q00960).
T1 construct: expressed in transfected cells; host or cells: Xenopus laevis oocytes (cRNA injection)
The experiment can be described thus: Outside-out patch recordings of NMDA receptor currents, wild-type channel expressed in Xenopus oocytes. It counts as cell-based. How it is done: (§1) The rat GluN1a variant and GluN2B cDNA clones were used in this study. Point mutations were made by site-directed mutagenesis using the QuickChange Site-Directed Mutagenesis kit (Stratagene, La Jolla, CA). Mutations were verified by DNA sequencing to ensure the lack of any inadvertent mutations. The capped cRNA transcripts were then synthesized using T7 and T3 mMESSAGE mMACHINE transcription kits (Ambion, Austin, TX), and were stored at −80 °C.
(§2) This study was carried out in accordance with the ethical information guidelines of the National Taiwan University College of Medicine. The protocols for the care and use of animals were approved by the National Taiwan University College of Medicine and College of Public Health Institutional Animal Care and Use Committee (IACUC). All efforts were made to minimize animal suffering. Adult female Xenopus laevis were anesthetized, and ovarian lobes containing stage V or VI oocytes were removed. Oocytes were dispersed after manual disruption of the egg sac, and were digested for 1 hr with collagenase type I (2 mg/ml) to remove the follicular layer. A mixture of GluN1a variant and GluN2B cRNAs with a ratio of 1:5 (i.e., 0.1–4 ng of GluN1a variant and 0.5–20 ng of GluN2B) (Kashiwagi et al. 2002) was injected into oocytes. Oocytes were maintained in the culture medium (96 mM NaCl, 2 mM KCl, 1.8 mM MgCl2, 1.8 mM CaCl2, 5 mM HEPES, and 50 ug/ml gentamycin, pH 7.6) at 18 °C for 2–3 days before electrophysiological recordings.
Oocytes were placed in a recording chamber containing Mg^2+-free bath solution (150 mM NaMeSO3, 5 mM NaCl, and 10 mM HEPES; pH 7.4). Outside-out patch recordings were obtained using fire-polished pipettes pulled from borosilicate capillaries (outer diameter, 1.55–1.60 mm; Hilgenberg, Malsfeld, Germany). Recording pipettes ([…]) were filled with the pipette solution containing 150 mM NaMeSO3, 5 mM NaCl, 5 mM EGTA, and 10 mM HEPES (pH 7.4). A seal was formed, and the outside-out patch configuration was obtained in Tyrode’s solution (150 mM NaCl, 4 mM KCl, 2 mM MgCl2, 2 mM CaCl2, and 10 mM HEPES; pH 7.4). The patch was then lifted from the bottom of the chamber and moved in front of a set of “theta glass” tubes (2.0 mm outer diameter pulled to an opening of ~300 μm in width; Warner Instrument, Hamden, CT) emitting external recording solutions. The standard external solution was Mg^2+-free Ca^2+-free Tyrode’s solution (pH 7.4), but 2 mM Ca^2+ or 0.1–100 μM Cd^2+ may be added to the external recording solution as specified in each different experimental condition. The glass-tube holder was connected to a stepper motor (SF-77B perfusion system, Warner Instrument) to achieve fast switch for rapid solution change. Drugs and salts were purchased from Sigma (St. Louis, MO). NMDA, glycine, and Cd^2+ were dissolved in water to make 100, 100, and 10 mM stock solutions, respectively. The stock solutions were then diluted into the external recording solution to make 1 to 100 μM Cd^2+, 1 to 300 μM NMDA, and 30 μM glycine. The NMDA currents were recorded at a membrane potential of −70 mV and at room temperature (~25 °C) with an […] amplifier, filtered at 1 kHz with a four-pole Bessel filter, digitized at 500 μs intervals, and stored using a Digidata-1322A analog/digital interface along with the pCLAMP software (all from MDS Analytical Technologies, Sunnyvale, CA). To plot the activation and the desensitization curves, a patch was moved from the NMDA- and glycine-free external solution to the external solution containing 0 to 100 μM NMDA and 30 μM glycine for 3 s (the desensitization prepulse), and then moved to another external solution containing 300 μM NMDA and 30 μM glycine for 3 s (the test pulse) before being moved back to the NMDA-free external solution again. The amplitude of the sustained currents in the desensitization prepulse in each different concentration of NMDA is normalized to the maximal current and plotted against the NMDA concentration to obtain the activation curve. […]

For experiment [2], the target named is T2, E661AE662A double mutant NMDA channel (Rattus norvegicus, UniProt P35439+Q00960, E661A/E662A).
T2 construct: expressed in transfected cells; host or cells: Xenopus laevis oocytes (cRNA injection)
The experiment can be described thus: Outside-out patch recordings, E661AE662A double mutant NMDA channel. It counts as cell-based. The following applies: 2 mM extracellular Ca2+; n = 6, WT n = 9; P = 5.1*10^−5. How it is done: as §1, §2
Oocytes were placed in a recording chamber containing Mg^2+-free bath solution (150 mM NaMeSO3, 5 mM NaCl, and 10 mM HEPES; pH 7.4). Outside-out patch recordings were obtained using fire-polished pipettes pulled from borosilicate capillaries (outer diameter, 1.55–1.60 mm; Hilgenberg, Malsfeld, Germany). Recording pipettes ([…]) were filled with the pipette solution containing 150 mM NaMeSO3, 5 mM NaCl, 5 mM EGTA, and 10 mM HEPES (pH 7.4). A seal was formed, and the outside-out patch configuration was obtained in Tyrode’s solution (150 mM NaCl, 4 mM KCl, 2 mM MgCl2, 2 mM CaCl2, and 10 mM HEPES; pH 7.4). The patch was then lifted from the bottom of the chamber and moved in front of a set of “theta glass” tubes (2.0 mm outer diameter pulled to an opening of ~300 μm in width; Warner Instrument, Hamden, CT) emitting external recording solutions. The standard external solution was Mg^2+-free Ca^2+-free Tyrode’s solution (pH 7.4), but 2 mM Ca^2+ or 0.1–100 μM Cd^2+ may be added to the external recording solution as specified in each different experimental condition. The glass-tube holder was connected to a stepper motor (SF-77B perfusion system, Warner Instrument) to achieve fast switch for rapid solution change. Drugs and salts were purchased from Sigma (St. Louis, MO). NMDA, glycine, and Cd^2+ were dissolved in water to make 100, 100, and 10 mM stock solutions, respectively. The stock solutions were then diluted into the external recording solution to make 1 to 100 μM Cd^2+, 1 to 300 μM NMDA, and 30 μM glycine. The NMDA currents were recorded at a membrane potential of −70 mV and at room temperature (~25 °C) with an […] amplifier, filtered at 1 kHz with a four-pole Bessel filter, digitized at 500 μs intervals, and stored using a Digidata-1322A analog/digital interface along with the pCLAMP software (all from MDS Analytical Technologies, Sunnyvale, CA). […]

Experiment [3] concerns the target T3, T647A (GluN2B) mutant NMDA channel (Rattus norvegicus, UniProt P35439+Q00960, T647A).
T3 construct: expressed in transfected cells; host or cells: Xenopus laevis oocytes (cRNA injection)
Kind of experiment: Outside-out patch recordings, T647A (GluN2B) mutant NMDA channel. It is filed as cell-based. The following applies: 2 mM Ca2+; P = 0.028. The method, then: as §1, §2
Oocytes were placed in a recording chamber containing Mg^2+-free bath solution (150 mM NaMeSO3, 5 mM NaCl, and 10 mM HEPES; pH 7.4). […] The NMDA currents were recorded at a membrane potential of −70 mV and at room temperature (~25 °C) with an […] amplifier, filtered at 1 kHz with a four-pole Bessel filter, digitized at 500 μs intervals, and stored using a Digidata-1322A analog/digital interface along with the pCLAMP software (all from MDS Analytical Technologies, Sunnyvale, CA). […]

Another experiment has as its system wild-type NMDA channel. Further details: method as in PMID 12451122. To be noted: 1 mM Ca2+; decreased from 73 pS; cited from earlier work.
Experiment [4] concerns triple mutant NMDA channel (three negatively charged DRPEER residues neutralized). Further details: method as in PMID 12451122. To be noted: 1 mM Ca2+; decreased from 56 pS; cited from earlier work.

Read-outs that look alike come from different tables or passages of the source.

T1 sequence (Q00960 27-1482, other chains not shown): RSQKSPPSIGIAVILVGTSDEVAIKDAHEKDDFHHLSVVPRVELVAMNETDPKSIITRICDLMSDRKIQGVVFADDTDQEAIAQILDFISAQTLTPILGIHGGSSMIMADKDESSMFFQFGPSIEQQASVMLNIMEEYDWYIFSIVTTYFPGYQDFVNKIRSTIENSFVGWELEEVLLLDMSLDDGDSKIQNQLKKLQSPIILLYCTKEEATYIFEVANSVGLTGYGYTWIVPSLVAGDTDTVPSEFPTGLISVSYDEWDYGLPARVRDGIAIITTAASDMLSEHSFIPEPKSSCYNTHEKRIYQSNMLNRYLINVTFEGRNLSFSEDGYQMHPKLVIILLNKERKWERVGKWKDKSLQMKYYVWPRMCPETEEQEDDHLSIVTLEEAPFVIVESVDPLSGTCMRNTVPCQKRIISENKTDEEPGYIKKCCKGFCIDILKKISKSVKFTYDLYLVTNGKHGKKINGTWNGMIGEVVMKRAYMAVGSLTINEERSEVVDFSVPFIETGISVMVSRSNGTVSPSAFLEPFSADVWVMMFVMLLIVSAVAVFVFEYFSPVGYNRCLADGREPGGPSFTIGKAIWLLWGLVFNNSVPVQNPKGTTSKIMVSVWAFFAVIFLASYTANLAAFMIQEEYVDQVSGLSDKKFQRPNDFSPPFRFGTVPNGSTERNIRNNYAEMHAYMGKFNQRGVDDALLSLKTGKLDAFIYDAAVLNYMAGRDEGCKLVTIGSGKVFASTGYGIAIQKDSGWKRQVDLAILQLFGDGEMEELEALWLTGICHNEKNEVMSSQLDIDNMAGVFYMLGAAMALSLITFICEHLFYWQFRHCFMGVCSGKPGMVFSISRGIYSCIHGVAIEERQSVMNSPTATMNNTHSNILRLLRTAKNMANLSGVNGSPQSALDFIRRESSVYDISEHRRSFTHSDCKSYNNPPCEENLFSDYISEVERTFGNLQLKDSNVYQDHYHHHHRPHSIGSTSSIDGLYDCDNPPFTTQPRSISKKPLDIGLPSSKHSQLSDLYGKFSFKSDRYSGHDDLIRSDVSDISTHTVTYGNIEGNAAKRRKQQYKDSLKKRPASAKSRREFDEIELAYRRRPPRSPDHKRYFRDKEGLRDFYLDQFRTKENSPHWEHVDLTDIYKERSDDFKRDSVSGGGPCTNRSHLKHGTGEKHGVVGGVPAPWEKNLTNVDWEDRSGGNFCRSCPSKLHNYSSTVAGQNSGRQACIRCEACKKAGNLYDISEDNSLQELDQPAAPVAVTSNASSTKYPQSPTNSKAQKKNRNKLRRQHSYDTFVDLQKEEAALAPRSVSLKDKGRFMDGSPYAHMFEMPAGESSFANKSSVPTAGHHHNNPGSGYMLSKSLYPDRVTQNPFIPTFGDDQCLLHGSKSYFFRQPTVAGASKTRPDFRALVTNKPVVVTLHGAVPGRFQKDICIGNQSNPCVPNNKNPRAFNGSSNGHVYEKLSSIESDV
T2 sequence (Q00960 27-1482, other chains not shown): as above
T3 sequence (Q00960 27-1482 T647A, other chains not shown): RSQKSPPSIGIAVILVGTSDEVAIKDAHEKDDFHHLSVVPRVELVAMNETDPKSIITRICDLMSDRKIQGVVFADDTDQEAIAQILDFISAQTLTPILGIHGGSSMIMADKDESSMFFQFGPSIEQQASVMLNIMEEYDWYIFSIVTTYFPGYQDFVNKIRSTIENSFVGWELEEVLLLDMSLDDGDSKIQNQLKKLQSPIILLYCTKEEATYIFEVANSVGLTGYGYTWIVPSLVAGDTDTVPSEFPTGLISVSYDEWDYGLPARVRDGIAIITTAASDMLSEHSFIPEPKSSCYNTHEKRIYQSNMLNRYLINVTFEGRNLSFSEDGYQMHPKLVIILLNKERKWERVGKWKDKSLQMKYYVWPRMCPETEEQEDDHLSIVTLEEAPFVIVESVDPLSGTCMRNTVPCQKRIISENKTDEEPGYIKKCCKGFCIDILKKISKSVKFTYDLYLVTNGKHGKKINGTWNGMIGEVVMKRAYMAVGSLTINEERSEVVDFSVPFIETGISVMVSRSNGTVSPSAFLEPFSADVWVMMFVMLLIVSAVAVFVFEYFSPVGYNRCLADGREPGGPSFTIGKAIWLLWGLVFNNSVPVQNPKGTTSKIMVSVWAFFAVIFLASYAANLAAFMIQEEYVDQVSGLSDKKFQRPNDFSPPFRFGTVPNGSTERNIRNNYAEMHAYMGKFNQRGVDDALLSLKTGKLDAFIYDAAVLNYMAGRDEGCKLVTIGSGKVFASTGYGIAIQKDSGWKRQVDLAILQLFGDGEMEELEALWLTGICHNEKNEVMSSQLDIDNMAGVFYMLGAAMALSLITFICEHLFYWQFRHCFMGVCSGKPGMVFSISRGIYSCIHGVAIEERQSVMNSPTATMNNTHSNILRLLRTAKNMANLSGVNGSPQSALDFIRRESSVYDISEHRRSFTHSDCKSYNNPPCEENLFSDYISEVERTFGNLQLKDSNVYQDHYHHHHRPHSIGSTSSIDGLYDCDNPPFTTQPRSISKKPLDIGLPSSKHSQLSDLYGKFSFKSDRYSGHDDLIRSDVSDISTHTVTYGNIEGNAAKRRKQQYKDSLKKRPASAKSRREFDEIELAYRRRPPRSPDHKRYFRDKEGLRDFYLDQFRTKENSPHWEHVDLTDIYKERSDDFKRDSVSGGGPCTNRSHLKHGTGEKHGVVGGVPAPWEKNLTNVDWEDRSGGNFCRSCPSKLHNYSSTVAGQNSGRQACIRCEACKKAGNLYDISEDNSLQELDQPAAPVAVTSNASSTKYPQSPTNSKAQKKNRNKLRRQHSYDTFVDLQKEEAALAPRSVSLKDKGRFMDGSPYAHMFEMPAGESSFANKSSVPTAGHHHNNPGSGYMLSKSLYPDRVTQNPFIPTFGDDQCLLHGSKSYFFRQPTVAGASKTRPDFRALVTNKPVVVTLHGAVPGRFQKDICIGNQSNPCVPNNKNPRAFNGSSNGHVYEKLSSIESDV

With `[Ca+2]` [Ca^2+], the “effect on NMDAR current, cation present during the NMDA pulse” value in experiment [1] (2 mM extracellular Ca2+, 300 μM NMDA plus 30 μM glycine) is reported as “decreases the NMDAR current”. In experiment [1] (2 mM extracellular Ca2+, closed channel), the “effect on NMDAR current peak, cation applied before but not during the NMDA pulse” value was “evident decrease of the NMDAR current peak”. For the same molecule, the “effect on sustained current (relative current) compared with WT channel” value in experiment [2] is on record as “significantly decreased”. For the same molecule, the “relative hook current after wash-off of agonists and blocking cation, compared with WT channel” value in experiment [3] is reported as “significantly larger hook current”. Also, the “overall current flow through the NMDA channel in Ca2+” value is given as 41 pS in the experiment on wild-type NMDA channel and 45 pS in experiment [4].

`CN[C@H](CC(=O)O)C(=O)O` [NMDA]: the Kd in experiment [1] (read-out: apparent dissociation constant of NMDA (KN), fit to activation data) is 47 µM; in experiment [1] (read-out: apparent dissociation constant of NMDA (KN), fit to desensitization data), 35 µM.
